Data taken from patent publication US12186311B2, “Antiproliferative compounds and second active agents for combined use” (Celgene Corporation, priority 2019, dated 2025).

Key:
Format in all cases: cell-based
[1] = system: panel of MM cell lines (H929-1051, KMS11, KMS-12PE, L363, OPM-P10, RPMI8226); test: Compound 2 combination with small molecule inhibitors, 3 day Cell Titer-Glo, Highest Single Agent synergy; settings: six MM cell lines, 3 days, Highest Single Agent method
Description: The combination experiments were run twice, each time with replicate data on separate plates. Compounds were pre-spotted into the appropriate wells of 384-well plates using an acoustic dispenser. All MM cell lines were cultured in an incubator at 37° C. with 5% CO2 using the indicated cell culture media containing 1× Penicillin-Streptomycin. Cells were added to the compound containing 384-well plates using a Multidrop Combi Reagent Dispenser and allowed to incubate for 3 days at 37° C. with 5% CO2. After 3 days, cells were assessed for their level of ATP content via Cell Titer-Glo measured on a luminescence detector (PerkinElmer Envision).
The Highest Single Agent (HAS) method was used to detect synergy in the dose response curve data. Combinations were analyzed from a response surface perspective.

[2] = system: MM cell lines OPM.2-P10, H929-1051, KMS12BM PR, L363, JJN3; test: 7 day combination assay (Annexin V/7-AAD flow cytometry, fractional product method), MM cell line panel; settings: panel of 5 MM cell lines, 7 day assay, 3 days priming with second agent
Description: Five MM cell lines with acquired or inherent resistance to lenalidomide or pomalidomide were included in the studies (OPM.2-P10, H929-1051, KM[…] PR, L363, and JJN3). […] The assay was performed in a 96-well plate. All MM cell lines were cultured in an incubator at 37° C. with 5% CO2 using the indicated cell culture media containing 1×Penicillin-Streptomycin. The MM cells were primed for 3 days with these second agents at the single agent IC50 value. […] Compound 2 was added to the cells at a dose range of 30 μM-0.00018 μM, depending on the cell line, for a 8 point dose response curve. The cells were incubated at 37° C. for an additional 4 days. At the end of the 7 day treatment, the MM cells were stained with Annexin V and 7-AAD and analyzed on a flow cytometer. Live MM cells were identified as Annexin V and 7-AAD double negative cells. In these experiments, synergy calculations were performed using the fractional product method (Webb, 1963).

[3] = system: AMO1 (parental) cell line; test: Cell proliferation, combination with Compound 2, combination index (Calcusyn), AMO1; settings: AMO1, 3 days
Description: (§1) AMO1 (parental) and AMO1-PR (pomalidomide resistant) cell lines were treated with various doses of Compound 2 in combination with increasing doses of an MEK inhibitor trametinib for 3 days. Cell proliferation was analyzed using thymidine incorporation assays. Combination index values were calculated by Calcusyn and values below 10^0 represented the synergy between the combination treatments. The results are shown in FIG. 4A (AMO1), FIG. 4B (AMO1 combination index), FIG. 4C (AMO1-PR), and FIG. 4D (AMO1-PR combination index), respectively.
(§2) AMO1 and AMO1-PR (pomalidomide resistant) cell lines were treated with increasing doses of Compound 2 in combination with a PLK1 inhibitor (BI2536). Changes in cell proliferation were studied in response to monotherapy and combinations at Day 3 post treatment. Combination Index was calculated using Calcusyn based method. Combination index values were calculated by Calcusyn and values below 10^0 represented the synergy between the combination treatments. PLK1 is one of the key target gene of MDMS8 (molecularly defined myeloma segment 8), a high risk cluster identified from myeloma genome project. The results are shown in FIG. 6A (AMO1), FIG. 6B (AMO1 combination index), FIG. 6C (AMO1-PR), and FIG. 6D (AMO1-PR combination index), respectively. Inhibition of MDMS8 target gene PLK1 with Compound 2 is synergistic in AMO1 and AMO1-PR cells.
(§3) AMO1 and AMO1-PR (pomalidomide resistant) cell lines were treated with increasing doses of Compound 2 in combination with an NEK2 inhibitor (JH295). Changes in cell proliferation were studied in response to monotherapy and combinations at Day 3 post treatment. Combination index values were calculated by Calcusyn and values below 10^0 represented the synergy between the combination treatments. NEK2 is one of the key target gene of MDMS8 (molecularly defined myeloma segment 8), a high risk cluster identified from myeloma genome project. The results are shown in FIG. 7A (AMO1 combination index) and FIG. 7B (AMO1-PR combination index), respectively. Inhibition of MDMS8 target gene NEK2 with Compound 2 is synergistic in AMO1 and AMO1-PR cells.
(§4) AMO1, AMO1-PR (pomalidomide resistant), K12PE and K12PE-PR (pomalidomide resistant) cell lines were treated with increasing doses of Compound 2 in combination with an AURKB inhibitor (AZD 1152). […] Combination index values were calculated by Calcusyn and values below […] represented the synergy between the combination treatments. […]
(§5) AMO1, AMO1-PR (pomalidomide resistant) cell lines were treated with increasing doses of Compound 2 in combination with a BIRC5 inhibitor (YM155). […] Combination index values were calculated by Calcusyn and values below 10^0 represented the synergy between the combination treatments. […]

[4] = system: AMO1-PR (pomalidomide resistant) cell line; test: Cell proliferation, combination with Compound 2, combination index (Calcusyn), AMO1-PR; settings: 3 days
Description: as §1, §2, §3, §4, §5

Row | SMILES | synergy in combination with Compound 2 [1] | synergy in combination with Compound 2 [2] | also measured
1 | O=C(/C=C\n1cnc(-c2cc(C(F)(F)F)cc(C(F)(F)F)c2)n1)NNc1cnccn1 [selinexor, (2Z)-3-{3-[3,5-bis(trifluoromethyl)phenyl]-1H-1,2,4-triazol-1-yl}-N′-(pyrazin-2-yl)prop-2-enehydrazide] | synergy in one, two, or three out of the six cell lines tested |  | 
2 | Cc1cnc(Nc2ccc(OCCN3CCCC3)cc2)nc1Nc1cccc(S(=O)(=O)NC(C)(C)C)c1 [fedratinib, N-tert-butyl-3-[(5-methyl-2-{4-[2-(pyrrolidin-1-yl)ethoxy]anilino}pyrimidin-4-yl)amino]benzenesulfonamide] | synergy in one, two, or three out of the six cell lines tested |  | 
3 | Nc1ncn([C@@H]2O[C@H](CO)[C@@H](O)[C@H]2O)c(=O)n1 [azacitidine, 4-amino-1-β-D-ribofuranosyl-1,3,5-triazin-2(1H)-one] |  | synergy in 4 of the cell lines tested | 
4 | C=CC(=O)N1CCC[C@@H](n2nc(-c3ccc(Oc4ccccc4)cc3)c3c(N)ncnc32)C1 [ibrutinib, 1-[(3R)-3-[4-amino-3-(4-phenoxyphenyl)-1Hpyrazolo[3,4-d]pyrimidin-1-yl]-1-piperidinyl]-2-propen-1-one] | synergy in one, two, or three out of the six cell lines tested |  | 
5 | COCCn1c2c([n+](Cc3cnccn3)c1C)C(=O)c1ccccc1C2=O.[Br-] [YM155, 1-(2-methoxyethyl)-2-methyl-4,9-dioxo-3-(pyrazin-2-ylmethyl)-4,9-dihydro-1H-naphtho[2,3-d]imidazol-3-ium bromide] |  |  | synergy with Compound 2 (combination index) [3]: synergistic; synergy with Compound 2 (combination index) [4]: synergistic
6 | CC[C@@H]1C(=O)N(C)c2cnc(Nc3ccc(C(=O)NC4CCN(C)CC4)cc3OC)nc2N1C1CCCC1 [BI2536, (R)-4-((8-cyclopentyl-7-ethyl-5-methyl-6-oxo-5,6,7,8-tetrahydropteridin-2-yl)amino)-3-methoxy-N-(1-methylpiperidin-4-yl)benzamide] |  |  | synergy with Compound 2 (combination index) [3]: synergistic; synergy with Compound 2 (combination index) [4]: synergistic
7 | COc1cc(C)[nH]c(=O)c1CNC(=O)c1c(C)n([C@H](C)C2CCN(CC(F)(F)F)CC2)c2ccccc12 [CPI-1205, (R)—N-((4-methoxy-6-methyl-2-oxo-1,2-dihydropyridin-3-yl)methyl)-2-methyl-1-(1-(1-(2,2,2-trifluoroethyl)piperidin-4-yl)ethyl)-1H-indole-3-carboxamide] |  | synergistic in all 5 cell lines tested | 
8 | CO[C@H]1C[C@@H]2CC[C@@H](C)[C@@](O)(O2)C(=O)C(=O)N2CCCC[C@H]2C(=O)O[C@H]([C@H](C)C[C@@H]2CC[C@@H](OCCO)[C@H](OC)C2)CC(=O)[C@H](C)/C=C(\C)[C@@H](O)[C@@H](OC)C(=O)[C@H](C)C[C@H](C)/C=C/C=C/C=C/1C [everolimus, 40-O-(2-hydroxyethyl)-rapamycin] | synergy in combination with Compound 2 in five out of the six cell lines tested |  | 
9 | CCN(c1cc(-c2ccc(CN3CCOCC3)cc2)cc(C(=O)NCc2c(C)cc(C)[nH]c2=O)c1C)C1CCOCC1 [tazemetostat, N-[(1,2-dihydro-4,6-dimethyl-2-oxo-3-pyridinyl)methyl]-5-[ethyl(tetrahydro-2H-pyran-4-yl)amino]-4-methyl-4′-(4-morpholinylmethyl)-[1,1′-biphenyl]-3-carboxamide] | synergy in one, two, or three out of the six cell lines tested | synergistic in all 5 cell lines tested | 
10 | C[C@]1(O)C[C@@H](c2nc(-c3ccc4ccc(-c5ccccc5)nc4c3)c3c(N)nccn32)C1 [linsitinib, cis-3-[8-amino-1-(2-phenyl-7-quinolinyl)imidazo[1,5-a]pyrazin-3-yl]-1-methylcyclobutanol] | synergy in combination with Compound 2 in four out of the six cell lines tested |  | 
11 | CC(C)N(CCCNC(=O)Nc1ccc(C(C)(C)C)cc1)C[C@H]1O[C@@H](n2cc(Br)c3c(N)ncnc32)[C@H](O)[C@@H]1O [SGC0946, 5 bromo-7-[5-deoxy-5-[[3-[[[[4-(1,1-dimethylethyl)phenyl]amino]carbonyl]amino]propyl](1-methylethyl)amino]-β-D-ribofuranosyl]-7H-pyrrolo[2,3-d]pyrimidin-4-amine] | synergy in one, two, or three out of the six cell lines tested |  | 
12 | C#CC(=O)Nc1ccc2c(c1)/C(=C/c1[nH]c(CC)nc1C)C(=O)N2 [JH295, (Z)—N-(3-((2-ethyl-4-methyl-1H-imidazol-5-yl)methylene)-2-oxoindolin-5-yl)propiolamide] |  |  | synergy with Compound 2 (combination index) [3]: synergistic; synergy with Compound 2 (combination index) [4]: synergistic
13 | CC(C)N(C[C@H]1O[C@@H](n2cnc3c(N)ncnc32)[C@H](O)[C@@H]1O)C1CC(CCc2nc3cc(C(C)(C)C)ccc3[nH]2)C1 (stereo partly drawn) [pinometostat, (2R,3R,4S,5R)-2-(6-amino-9H-purin-9-yl)-5-((((1r,3S)-3-(2-(5-(tert-butyl)-1H-benzo[d]imidazol-2-yl)ethyl)cyclobutyl)(isopropyl)amino)methyl)tetrahydrofuran-3,4-diol] |  | Synergy was also evident | 
